According to BindingDB's records for doi:10.1021/jm201702g (Ambit Biosciences, 2012):

Experiment: Inhibition of Aurora kinase B in human HCT116 cells assessed as induction of 8N polyploidy

SMILES	EC50
Cc1cc(Nc2nc(Sc3ccc(NC(=O)CN4CC[C@@H](C(=O)NC5CCCC5)C4)cc3)nn3cccc23)n[nH]1	3 nM
Cc1cc(Nc2nc(Sc3ccc(NC(=O)CN4CC[C@@H](C(=O)N5CCC(F)(F)C5)C4)cc3)nn3cccc23)n[nH]1	3 nM
